Data: ChEMBL document CHEMBL1201862, “PubChem BioAssay data set” (2004)
Active and inactive are the calls of the source.

Key:
[1] = target: T1, Tyrosine-protein phosphatase non-receptor type 7 (Homo sapiens, UniProt P35236); type: functional
T1 sequence (P35236 whole entry): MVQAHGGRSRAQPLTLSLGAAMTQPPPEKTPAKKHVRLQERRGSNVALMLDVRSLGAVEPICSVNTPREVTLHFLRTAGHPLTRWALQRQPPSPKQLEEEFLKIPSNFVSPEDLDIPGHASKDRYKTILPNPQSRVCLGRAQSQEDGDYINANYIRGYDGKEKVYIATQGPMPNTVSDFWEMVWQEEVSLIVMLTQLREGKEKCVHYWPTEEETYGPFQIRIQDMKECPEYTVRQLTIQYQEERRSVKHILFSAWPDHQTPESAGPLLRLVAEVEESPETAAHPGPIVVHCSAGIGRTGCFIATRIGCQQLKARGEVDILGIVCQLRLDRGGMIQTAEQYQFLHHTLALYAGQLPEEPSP

[2] = target: T2, Tyrosine-protein phosphatase non-receptor type 22 (Homo sapiens, UniProt Q9Y2R2); type: functional
T2 sequence (Q9Y2R2 whole entry): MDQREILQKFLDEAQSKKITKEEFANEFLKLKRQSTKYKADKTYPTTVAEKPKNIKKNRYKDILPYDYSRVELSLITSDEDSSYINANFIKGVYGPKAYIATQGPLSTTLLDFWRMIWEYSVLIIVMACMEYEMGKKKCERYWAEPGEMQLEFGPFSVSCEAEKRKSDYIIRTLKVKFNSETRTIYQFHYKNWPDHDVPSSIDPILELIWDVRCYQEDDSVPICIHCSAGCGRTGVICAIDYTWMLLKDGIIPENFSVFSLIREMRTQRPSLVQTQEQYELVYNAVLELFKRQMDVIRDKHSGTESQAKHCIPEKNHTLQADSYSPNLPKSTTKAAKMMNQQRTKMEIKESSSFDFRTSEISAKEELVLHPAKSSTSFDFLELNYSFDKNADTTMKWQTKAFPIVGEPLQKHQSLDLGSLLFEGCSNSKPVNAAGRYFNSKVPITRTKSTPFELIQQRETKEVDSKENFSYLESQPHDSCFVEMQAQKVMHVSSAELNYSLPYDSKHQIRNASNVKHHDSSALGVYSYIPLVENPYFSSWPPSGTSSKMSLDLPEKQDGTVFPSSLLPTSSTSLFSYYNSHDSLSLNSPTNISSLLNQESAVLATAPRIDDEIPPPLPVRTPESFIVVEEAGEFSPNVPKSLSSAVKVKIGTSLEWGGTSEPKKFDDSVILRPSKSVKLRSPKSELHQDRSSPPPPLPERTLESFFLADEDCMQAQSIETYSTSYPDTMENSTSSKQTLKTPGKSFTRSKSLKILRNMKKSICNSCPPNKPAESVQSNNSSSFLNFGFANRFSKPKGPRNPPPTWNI

[3] = target: T2, Tyrosine-protein phosphatase non-receptor type 22; type: functional; remark: listed apart in the source
[4] = target: T3, Delta-type opioid receptor (Homo sapiens, UniProt P41143); assay: HTS Image-Based Screen for Antagonists of the DOR Receptor. [Related pubchem assays (depositor defined):AID1777, AID1785, AID1786, AID2133]; type: functional
[5] = luciferase reporter signal suppression in cells – H4 neuroglioma cells, luminescence, dose response (AID 1990); type: functional, cell-based
Mu-type opioid receptor = Mu-type opioid receptor (Homo sapiens, UniProt P35372); assay: HTS Image-Based Screen for Agonists of the MOR Receptor. [Related pubchem assays (depositor defined):AID1777, AID1785, AID1786, AID2133]; type: functional;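 further: imaging of beta-arrestin GFP recruitment into spots after receptor activation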
[6] = target: T3, Delta-type opioid receptor; assay: HTS Image-Based Screen for Agonists of the DOR Receptor. [Related pubchem assays (depositor defined):AID1777, AID1786, AID2133]; type: functional
[7] = alpha-synuclein stem-loop luciferase translation blockers – H4 neuroglioma cells, luminescence, confirmation (AID 1988); type: functional, cell-based
[8] = Trypanosoma cruzi growth suppression in host cells – NIH3T3 host cells, beta-gal luminescence, confirmation (AID 2044); type: functional, cell-based;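 further: intracellular parasites grown in NIH/3T3 mouse fibroblasts as host cells; luminescent beta-galactosidase reporter signal from transgenic T. cruzi replicating inside host cells; inhibitors lower the luminescence signal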
[9] = target: T4, Kappa-type opioid receptor (Homo sapiens, UniProt P41145); type: functional
[10] = NIH3T3 cell viability loss – ATP luminescence, mouse fibroblasts, counter-screen, dose response (AID 2010); type: functional, cell-based;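 further: cells exposed to compound for about 90 hours before reading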
Beta-galactosidase = Beta-galactosidase (Escherichia coli, UniProt Q8VNN2); type: functional
[11] = target: T4, Kappa-type opioid receptor; type: functional; remark: listed apart in the source
[12] = target: T5, Heat shock factor protein 1 (Mus musculus, UniProt P38532); assay: enhancement of HSF1-driven luciferase signal – cell-based, NIH3T3, luminescence, dose retest, confirmation (AID 435004); type: functional;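 further: stress induced by proteasome inhibitor MG132 added 30 min after compound; luciferase reporter driven by HSF1 response element in NIH3T3 cells; actives raise luminescence as potentiators of the MG132 stress response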
T5 sequence (P38532 whole entry): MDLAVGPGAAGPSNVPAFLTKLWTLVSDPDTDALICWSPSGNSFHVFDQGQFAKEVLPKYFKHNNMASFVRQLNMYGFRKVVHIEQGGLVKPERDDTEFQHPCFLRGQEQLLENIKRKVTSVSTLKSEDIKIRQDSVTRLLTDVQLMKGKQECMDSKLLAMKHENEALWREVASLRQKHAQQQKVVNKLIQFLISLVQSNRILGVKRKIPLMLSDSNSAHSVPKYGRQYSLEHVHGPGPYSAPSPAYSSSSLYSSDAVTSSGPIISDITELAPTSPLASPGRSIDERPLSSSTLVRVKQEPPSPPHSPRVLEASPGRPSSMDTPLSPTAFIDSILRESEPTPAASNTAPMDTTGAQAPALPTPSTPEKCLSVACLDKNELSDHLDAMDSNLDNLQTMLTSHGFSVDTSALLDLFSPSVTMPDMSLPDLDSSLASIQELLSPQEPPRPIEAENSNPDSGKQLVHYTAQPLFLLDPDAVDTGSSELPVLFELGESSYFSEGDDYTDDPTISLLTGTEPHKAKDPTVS

CHO = CHO cell viability loss, potency – luminescence, cytotoxicity control for TLR9-MyD88 binding inhibitor project, dose response (AID 588339); type: functional, cell-based, hamster; conditions: Cricetulus griseus;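 further: CHO cells stably coexpressing TLR9 and MyD88 fusions from primary screen; compound exposure lasted 48 hours before viability readout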
Beta Lactamase = Beta Lactamase (Pseudomonas aeruginosa, UniProt Q932Y6); assay: BLA reporter interference, concentration series – BLA reporter cells, FRET fluorescence, artefact control for TLR9-MyD88 binding inhibitor project, dose response (AID 588341); type: cell-based;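 further: cell based assay in CHO-K1 cells stably expressing beta-lactamase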
Paired box protein Pax-8 = Paired box protein Pax-8 (Homo sapiens, UniProt Q06710); assay: PAX8 transcriptional activity inhibition in RMG-I – RMG-I cells, luciferase, cherry-pick, dose response (AID 687027); type: functional, cell-based;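 further: luciferase reporter driven by Pax8 target thyroperoxidase promoter measured by SteadyGlo luminescence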
[13] = reduced cellular PGC1a acetyl-lysine signal – cell-based, cherry-picked samples, dose response (AID 720514); type: functional;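 further: potency may reflect raised or lowered acetylation signal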
[14] = A549 cell cytotoxicity, dose response, cytotoxicity control, plate reader, cherry-pick, antagonist series (AID 743412); type: functional, cell-based
[15] = toxicity toward HepG2 liver cells – cell-based, plate reader, cherry-pick, antagonist series, cytotoxicity control, dose response (AID 743416); type: functional
[16] = blockers of bursicon-stimulated LGR2 cAMP reporter – cell-based, HEK293, CRE-luciferase reporter, cherry pick, set 2, dose response (AID 743343); type: functional;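 further: transfected cells were stimulated with diluted bursicon conditioned medium after compound addition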
[17] = general cell-killing toxicity readout – plate reader, dry powder samples, cytotoxicity control for PAX8 inhibitor project, dose response (AID 743021); type: functional, cell-based
[18] = blockade of melanocortin 4 receptor signaling – cell-based, plate reader, cherry pick, counter-screen for LGR2 antagonist project, dose response (AID 743444); type: functional;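 further: transfected HEK 293 cells stimulated with alpha-MSH peptide; potency of inhibitors of the alpha-MSH evoked signal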
[19] = viability loss in HEK293 cells – cell-based, plate reader, cherry-picked samples, cytotoxicity control, dose response (AID 743446); type: functional
[20] = Luminescent dose response cell-based high throughput screening assay for inhibitors of the Janus kinase 2 mutant JAK2V617F. [Related pubchem assays: 1446 (Primary screen.), 1521 (Confirmation assay.), 1486 (Counter screen.)]; type: functional
[21] = Luminescence Cell-Based Dose Response HTS to Identify Inhibitors of 5'UTR Stem-Loop Driven Prion Protein mRNA Translation in H4 Neuroglioblastoma Cells. [Related pubchem assays: 1827 (Project Summary), 1813 (Primary HTS)]; type: functional
Exodeoxyribonuclease V = Exodeoxyribonuclease V (Escherichia coli (strain K12), UniProt P04993+P07648+P08394); assay: RecBCD inhibition via phage-restricted bacterial growth – absorbance, V66 E. coli, mutant T4 phage, counter-screen for AddAB inhibitor project, dose response (AID 492957); type: functional, cell-based, Escherichia coli str. K-12 substr. MG1655
[22] = Luminescence Cell-Based Dose Retest to Confirm Inhibitors of Cancer Stem Cells. [Related pubchem assays (depositor defined):AID2717, AID2721]; type: functional; conditions: Homo sapiens
[23] = Counterscreen for AddAB inhibitors: absorbance-based bacterial cell-based high throughput dose response assay for inhibitors of bacterial viability. [Related pubchem assays (depositor defined):AID435030, AID449728, AID449731, AID488942, AID488955, AID488956]; type: functional
Cysteine protease ATG4B = target: T6, Cysteine protease ATG4B (Homo sapiens, UniProt Q9Y4P1); type: functional;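 further: Fluorescence-based dose-response confirmation assay measuring inhibition of ATG4B activity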
T6 sequence (Q9Y4P1 whole entry): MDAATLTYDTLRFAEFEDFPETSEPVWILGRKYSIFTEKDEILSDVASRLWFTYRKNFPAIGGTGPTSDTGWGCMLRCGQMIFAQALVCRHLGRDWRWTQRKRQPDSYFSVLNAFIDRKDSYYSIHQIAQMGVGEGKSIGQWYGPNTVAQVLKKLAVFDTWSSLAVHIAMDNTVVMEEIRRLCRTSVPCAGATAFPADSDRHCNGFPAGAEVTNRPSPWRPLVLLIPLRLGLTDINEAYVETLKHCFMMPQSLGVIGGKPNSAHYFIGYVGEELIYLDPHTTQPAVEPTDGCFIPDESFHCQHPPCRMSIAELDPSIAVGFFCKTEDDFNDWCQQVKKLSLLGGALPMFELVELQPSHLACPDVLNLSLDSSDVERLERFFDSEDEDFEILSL

Phospholipase A2 = Phospholipase A2 (Homo sapiens, UniProt P04054); type: functional;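 further: confirmatory dose-response counterscreen on phospholipase A2, testing hits that came from an ultra-high-throughput screen for ATG4B inhibitors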
[24] = target: Heat shock protein HSP 90-alpha (Homo sapiens, UniProt P07900); type: functional, organism-based
INS1 = assay: INS-1E survival protection against cytokine death – cell-based, luminescence, retest, dose response (AID 449756); type: functional; conditions: Rattus norvegicus;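 further: cell death triggered by IL-1 beta plus TNF-alpha plus IFN-gamma mixture; protective hits raise ATP signal compared with cytokine alone wells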
H9c2 = assay: cells; type: functional, cell-based; conditions: Rattus norvegicus, H9c2, Myocardium;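 further: confirmatory concentration-response retest of ultra-high-throughput screening hits for modulation of myocardial damage; cell death induced by hydrogen peroxide oxidative stress; compound pretreatment for 60 min then peroxide exposure for 2 h; potency is for protecting the cells against peroxide damage rather than for killing them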
[25] = HGIII-sPLA2 enzyme inhibition potency – biochemical, QFRET, IC50, dose response (AID 743457);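 further: green fluorescence rise as the enzyme cleaves BODIPY PC-A2 in liposomes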

Sequence of Exodeoxyribonuclease V (P04993 whole entry): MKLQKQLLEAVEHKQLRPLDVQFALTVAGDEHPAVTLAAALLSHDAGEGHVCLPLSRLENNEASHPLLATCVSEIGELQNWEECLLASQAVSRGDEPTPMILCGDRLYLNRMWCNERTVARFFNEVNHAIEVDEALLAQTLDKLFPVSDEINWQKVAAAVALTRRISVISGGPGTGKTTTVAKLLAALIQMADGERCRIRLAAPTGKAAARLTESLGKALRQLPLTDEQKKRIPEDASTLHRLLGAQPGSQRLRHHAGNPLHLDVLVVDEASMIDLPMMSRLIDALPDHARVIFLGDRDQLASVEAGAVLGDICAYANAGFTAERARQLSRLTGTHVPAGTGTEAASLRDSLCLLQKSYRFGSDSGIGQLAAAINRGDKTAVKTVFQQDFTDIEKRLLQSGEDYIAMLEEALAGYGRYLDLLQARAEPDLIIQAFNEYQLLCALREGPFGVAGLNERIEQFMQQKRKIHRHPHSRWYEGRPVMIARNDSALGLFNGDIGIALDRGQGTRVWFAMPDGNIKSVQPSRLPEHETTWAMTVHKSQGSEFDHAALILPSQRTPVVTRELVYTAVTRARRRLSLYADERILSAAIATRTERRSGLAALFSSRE
Sequence of Exodeoxyribonuclease V (P07648 whole entry): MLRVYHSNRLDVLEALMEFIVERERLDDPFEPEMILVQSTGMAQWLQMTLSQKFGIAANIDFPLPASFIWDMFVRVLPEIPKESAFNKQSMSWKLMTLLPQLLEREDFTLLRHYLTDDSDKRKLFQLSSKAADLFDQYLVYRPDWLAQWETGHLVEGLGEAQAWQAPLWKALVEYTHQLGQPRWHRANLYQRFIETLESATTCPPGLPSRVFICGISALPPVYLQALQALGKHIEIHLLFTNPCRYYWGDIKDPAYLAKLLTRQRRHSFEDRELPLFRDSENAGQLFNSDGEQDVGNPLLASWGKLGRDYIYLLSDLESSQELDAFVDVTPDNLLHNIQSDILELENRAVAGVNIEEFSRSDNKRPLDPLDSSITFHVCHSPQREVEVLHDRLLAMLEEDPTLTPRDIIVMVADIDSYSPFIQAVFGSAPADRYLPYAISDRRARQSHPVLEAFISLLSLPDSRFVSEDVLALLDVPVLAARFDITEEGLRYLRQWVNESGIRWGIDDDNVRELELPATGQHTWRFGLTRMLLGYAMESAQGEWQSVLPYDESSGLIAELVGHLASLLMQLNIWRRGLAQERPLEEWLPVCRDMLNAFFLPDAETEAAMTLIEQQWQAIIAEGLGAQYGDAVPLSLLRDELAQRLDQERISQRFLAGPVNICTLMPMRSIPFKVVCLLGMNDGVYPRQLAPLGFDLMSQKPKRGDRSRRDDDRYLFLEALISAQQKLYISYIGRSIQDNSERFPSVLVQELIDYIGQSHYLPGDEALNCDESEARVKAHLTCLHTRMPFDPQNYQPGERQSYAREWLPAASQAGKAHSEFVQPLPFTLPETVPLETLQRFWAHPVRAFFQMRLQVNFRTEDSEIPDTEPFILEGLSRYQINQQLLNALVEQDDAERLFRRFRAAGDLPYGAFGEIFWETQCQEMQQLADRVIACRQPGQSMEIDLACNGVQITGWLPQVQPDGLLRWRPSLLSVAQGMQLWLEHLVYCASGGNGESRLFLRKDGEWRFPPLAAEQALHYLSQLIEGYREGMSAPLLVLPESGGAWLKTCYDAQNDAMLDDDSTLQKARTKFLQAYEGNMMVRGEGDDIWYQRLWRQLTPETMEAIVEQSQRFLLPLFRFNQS
Sequence of Exodeoxyribonuclease V (P08394 whole entry): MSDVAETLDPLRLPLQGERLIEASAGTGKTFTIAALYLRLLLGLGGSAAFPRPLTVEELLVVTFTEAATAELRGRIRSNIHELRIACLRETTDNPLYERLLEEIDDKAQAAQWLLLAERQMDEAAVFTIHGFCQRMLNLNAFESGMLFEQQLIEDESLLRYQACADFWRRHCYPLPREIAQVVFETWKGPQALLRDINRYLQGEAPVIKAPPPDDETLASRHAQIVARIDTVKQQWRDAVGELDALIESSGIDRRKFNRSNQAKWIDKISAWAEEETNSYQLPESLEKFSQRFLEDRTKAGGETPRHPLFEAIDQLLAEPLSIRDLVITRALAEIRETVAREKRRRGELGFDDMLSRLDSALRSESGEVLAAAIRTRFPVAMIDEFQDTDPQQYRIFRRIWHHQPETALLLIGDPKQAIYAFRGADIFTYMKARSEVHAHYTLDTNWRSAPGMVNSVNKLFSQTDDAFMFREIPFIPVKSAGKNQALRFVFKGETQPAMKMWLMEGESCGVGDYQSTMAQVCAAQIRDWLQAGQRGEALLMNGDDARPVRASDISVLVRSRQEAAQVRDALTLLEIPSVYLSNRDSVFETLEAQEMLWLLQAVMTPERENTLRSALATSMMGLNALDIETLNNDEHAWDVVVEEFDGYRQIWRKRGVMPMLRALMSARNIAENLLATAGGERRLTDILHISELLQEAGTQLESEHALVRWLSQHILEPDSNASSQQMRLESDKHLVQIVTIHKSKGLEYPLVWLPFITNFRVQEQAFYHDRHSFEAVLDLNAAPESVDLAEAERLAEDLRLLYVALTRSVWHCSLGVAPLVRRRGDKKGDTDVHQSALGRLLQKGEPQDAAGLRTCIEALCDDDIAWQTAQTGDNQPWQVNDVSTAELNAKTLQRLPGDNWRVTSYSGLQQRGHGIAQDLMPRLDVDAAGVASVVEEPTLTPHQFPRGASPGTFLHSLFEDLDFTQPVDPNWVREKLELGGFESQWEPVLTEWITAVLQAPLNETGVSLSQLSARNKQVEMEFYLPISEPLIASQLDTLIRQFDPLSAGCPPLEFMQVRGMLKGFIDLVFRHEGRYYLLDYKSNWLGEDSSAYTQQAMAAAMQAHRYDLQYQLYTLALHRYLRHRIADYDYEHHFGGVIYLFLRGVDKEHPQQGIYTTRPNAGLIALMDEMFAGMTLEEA
T3 sequence (P41143 whole entry): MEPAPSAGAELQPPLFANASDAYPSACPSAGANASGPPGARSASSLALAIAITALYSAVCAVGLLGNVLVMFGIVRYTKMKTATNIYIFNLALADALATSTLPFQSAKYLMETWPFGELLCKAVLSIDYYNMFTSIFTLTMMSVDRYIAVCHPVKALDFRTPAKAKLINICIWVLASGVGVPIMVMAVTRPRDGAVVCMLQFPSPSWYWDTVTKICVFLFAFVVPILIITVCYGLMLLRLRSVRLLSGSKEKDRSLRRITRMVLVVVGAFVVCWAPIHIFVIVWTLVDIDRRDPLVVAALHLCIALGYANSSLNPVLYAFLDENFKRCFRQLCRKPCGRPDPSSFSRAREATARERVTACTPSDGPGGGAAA
T4 sequence (P41145 whole entry): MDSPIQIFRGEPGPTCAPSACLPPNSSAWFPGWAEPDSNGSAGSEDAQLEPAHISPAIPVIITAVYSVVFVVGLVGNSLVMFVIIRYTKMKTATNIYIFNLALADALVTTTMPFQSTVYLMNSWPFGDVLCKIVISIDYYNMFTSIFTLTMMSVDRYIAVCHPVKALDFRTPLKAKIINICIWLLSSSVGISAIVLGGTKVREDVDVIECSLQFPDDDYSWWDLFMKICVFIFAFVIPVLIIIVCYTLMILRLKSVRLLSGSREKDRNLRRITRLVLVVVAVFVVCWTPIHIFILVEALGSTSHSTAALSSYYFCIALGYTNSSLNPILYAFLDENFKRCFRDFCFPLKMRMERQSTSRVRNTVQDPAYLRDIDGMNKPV
Sequence of Beta Lactamase (Q932Y6 whole entry): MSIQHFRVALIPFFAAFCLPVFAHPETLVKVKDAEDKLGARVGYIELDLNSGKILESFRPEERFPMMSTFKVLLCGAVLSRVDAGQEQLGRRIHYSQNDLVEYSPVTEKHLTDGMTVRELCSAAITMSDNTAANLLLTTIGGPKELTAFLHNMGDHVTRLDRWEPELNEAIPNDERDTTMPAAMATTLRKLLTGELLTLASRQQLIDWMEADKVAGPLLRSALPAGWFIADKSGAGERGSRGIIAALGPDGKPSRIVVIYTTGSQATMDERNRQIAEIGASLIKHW
Sequence of Beta-galactosidase (Q8VNN2 whole entry): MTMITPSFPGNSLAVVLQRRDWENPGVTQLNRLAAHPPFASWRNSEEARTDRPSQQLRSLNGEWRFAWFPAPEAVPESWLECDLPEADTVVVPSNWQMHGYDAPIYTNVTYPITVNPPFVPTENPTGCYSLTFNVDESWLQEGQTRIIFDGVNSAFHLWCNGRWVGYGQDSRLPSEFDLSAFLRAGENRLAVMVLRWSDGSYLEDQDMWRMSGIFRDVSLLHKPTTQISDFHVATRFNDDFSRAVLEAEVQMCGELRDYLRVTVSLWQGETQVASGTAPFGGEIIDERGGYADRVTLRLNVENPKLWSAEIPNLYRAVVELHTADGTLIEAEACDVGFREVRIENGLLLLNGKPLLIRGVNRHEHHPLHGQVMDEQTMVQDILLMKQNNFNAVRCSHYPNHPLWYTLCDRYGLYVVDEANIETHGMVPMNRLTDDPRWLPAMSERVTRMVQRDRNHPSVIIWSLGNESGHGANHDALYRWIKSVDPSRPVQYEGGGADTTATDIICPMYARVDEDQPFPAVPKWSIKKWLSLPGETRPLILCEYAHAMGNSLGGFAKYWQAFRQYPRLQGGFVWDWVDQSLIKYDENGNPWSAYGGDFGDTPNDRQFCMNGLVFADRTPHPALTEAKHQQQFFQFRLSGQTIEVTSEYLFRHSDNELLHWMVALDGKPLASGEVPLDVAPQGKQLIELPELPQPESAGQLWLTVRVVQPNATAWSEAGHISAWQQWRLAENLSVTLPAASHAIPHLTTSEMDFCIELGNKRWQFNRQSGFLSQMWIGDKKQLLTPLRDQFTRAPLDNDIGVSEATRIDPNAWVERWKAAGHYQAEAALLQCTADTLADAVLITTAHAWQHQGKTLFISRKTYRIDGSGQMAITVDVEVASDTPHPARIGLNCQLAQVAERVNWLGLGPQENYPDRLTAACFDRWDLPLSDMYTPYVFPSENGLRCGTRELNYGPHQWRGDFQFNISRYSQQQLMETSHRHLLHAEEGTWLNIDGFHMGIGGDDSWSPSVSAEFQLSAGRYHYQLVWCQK

For NC(=O)Nc1ccccc1C(=O)NCCc1ccccc1, the IC50 [1] was > 79.4 µM (inactive), the IC50 [2] was > 79.4 µM (inactive) and the IC50 [3] was > 79.4 µM (inactive).
For S=c1sc2c(Cl)ncnc2n1-c1ccccc1, the IC50 [4] was 4.7 µM (active), the EC50 [5] was 8.14 µM (active) and the EC50 (Mu-type opioid receptor) was > 32 µM (inactive). The EC50 [6] was > 32 µM (inactive), the EC50 [7] was 7.71 µM (active) and the EC50 [8] was 2.26 µM (active). For the same molecule, the IC50 [9] was 7.27 µM (active), the EC50 [10] was 14.4 µM (active) and the EC50 (Beta-galactosidase) was > 31.5 µM (inactive). For the same molecule, the IC50 [11] was 3.55 µM, the EC50 [12] was 17.6 µM (active) and the IC50 (CHO) was 9.35 µM (active). For the same molecule, the IC50 (Beta Lactamase) was > 49.7 µM (inactive), the AC50 (Paired box protein Pax-8) was 7.52 µM (active) and the AC50 [13] was 2.79 µM (active). The AC50 [14] was 8.81 µM (active), the AC50 [15] was 13.2 µM (active) and the AC50 [16] was 17.8 µM (active). For the same molecule, the AC50 [17] was 60.6 µM (active), the AC50 [18] was 24.5 µM (active) and the AC50 [19] was 8.88 µM (active).
In the case of COc1cccc(/C=N/NC(=O)c2[nH]c(C)c(C(=O)N/N=C/c3cccc(OC)c3O)c2C)c1O, the IC50 [20] is reported as 2.8 µM (active), the EC50 [5] is reported as 9.94 µM (active) and the EC50 [21] is reported as 18.9 µM (active). For the same molecule, the EC50 [7] was 15.3 µM (active), the IC50 (Exodeoxyribonuclease V) was > 119 µM (inactive) and the AC50 [22] was 2.44 µM (active). The IC50 [23] was > 119 µM (inactive), the IC50 (Cysteine protease ATG4B) was 7.03 µM (active) and the IC50 (Phospholipase A2) was 9.88 µM (active).
For COc1ccc(N(CC(=O)NC(C)C)C(=O)CCC(=O)Nc2ccccn2)cc1, the IC50 [1] was > 79.4 µM (inactive), the IC50 [2] was > 79.4 µM (inactive) and the IC50 [3] was > 79.4 µM (inactive).
For Cc1onc(-c2ccccc2)c1C(=O)NC(=S)NNC(=O)c1ccccc1O, the IC50 (Exodeoxyribonuclease V) was > 119 µM (inactive), the IC50 [23] was > 119 µM (inactive) and the AC50 [24] was 2.92 µM (active). For the same molecule, the AC50 (INS1) was 7.21 µM (active), the IC50 (H9c2) was > 79 µM (inactive) and the IC50 [25] was > 122 µM (inactive).
